Assay results: article PMC2225439, “Amyloid as a Depot for the Formulation of Long-Acting Drugs” (PLoS Biology, 2008)

Molecular target: T1, wild-type GnRH (Homo sapiens, UniProt P01148)
T1 construct: gonadotropin-releasing hormone (GnRH); made in house; host or cells: chemical solid-phase synthesis (no expression host)
Experiment: Seeding of wild-type GnRH by L20 fibrils
Settings: matured fibrils 5% v/v with GnRH solution 95% v/v, 5% D-mannitol, room temperature without stirring, 1 mo; Thio T and EM
Text: Another concern for the application of amyloids in the formulation of long-acting drugs is the potential multiplication and spread of amyloids through seeding. Only a small amount of fibrillar seed is needed to induce and accelerate self-polymerization in the presence of monomeric amyloid protein/peptide. Within the context of GnRH, perhaps amyloids of the injected GnRH analogs may act as the seeds and the host GnRH as the reservoir of the free monomer. To mimic this situation in vitro, a seeding reaction was set up with a small amount of matured, long-acting L20 fibrils (5% v/v) in presence of a solution of wild-type GnRH (95% v/v). […]
A total of 5 μl of matured L20 fibril solution at a concentration of 1 mg/ml in 5% D-mannitol, 0.01% sodium azide was mixed with 95 μl of freshly prepared GnRH solution in the same solution condition followed by incubation at room temperature without stirring. […] Once a week, a 10-μl aliquot was diluted into 500 μl water containing 5% D-mannitol, 0.01% sodium azide, and 10 μl of 1 mM Thio T to measure the Thio T fluorescence as described above. […] The protein concentration of the supernatant was measured by UV absorbance with ɛ280 of 6,500 M^−1cm^−1. […] The formation of amyloid was monitored regularly for the mixture (α-Syn+L20) and α-Syn by Thio T binding.

seeding of wild-type GnRH: unable to seed wild-type GnRH
Substance: Ac-DNal-DCpa-Agl(Nic)-Ser-Aph(Ac)-DAph(Ac)-Leu-ILys-Pro-DAla-NH2 [L20]
